Assay [1] has as its target recombinant human PDE5 (Homo sapiens, UniProt O76074). In words: PDE5 inhibition, IMAP FP phosphodiesterase assay. The format is biochemical. The note with it: for inhibition at 10 µM: read-out: PDE5 % inhibition at 10 μm.
Assay [2] addresses PDE9A (Homo sapiens, UniProt O76083). The experiment in a line: PDE selectivity array, PDE9A with cGMP as substrate. The note with it: for inhibition of cGMP hydrolysis by PDE9A (in words): at concentrations up to 50 μM.
The target of assay [3] is PDE11A (Homo sapiens, UniProt Q9HCR9). In words: PDE selectivity array, PDE11A with cGMP and cAMP as substrates. The note with it: for IC50: 10 concentrations, double replicates.
Assay [4] addresses PDE10A (Homo sapiens, UniProt Q9Y233). In words: PDE selectivity array, PDE10A with cGMP as substrate. The note with it: for inhibition of cGMP hydrolysis by PDE10A (in words): at concentrations up to 50 μM.
The target in assay [5] is PDE1A (Homo sapiens, UniProt P54750). The experiment in a line: PDE selectivity array, PDE1A with cGMP as substrate. Conditions: for inhibition of cGMP hydrolysis by PDE1A (in words): at concentrations up to 50 μM.
Assay [6] concerns the target PDE2A (Homo sapiens, UniProt O00408). In words: PDE selectivity array, PDE2A with cGMP as substrate. Conditions: for inhibition of cGMP hydrolysis by PDE2A (in words): at concentrations up to 50 μM.
In assay [7] the target is PDE3A (Homo sapiens, UniProt Q14432). In words: PDE selectivity array, PDE3A with cGMP as substrate. Conditions: for inhibition of cGMP hydrolysis by PDE3A (in words): at concentrations up to 50 μM.
[8] abbreviates: IC50 PDE11A cAMP, substrate cAMP.
[9] abbreviates: IC50 PDE11A cGMP, substrate cGMP.

Structures are written as SMILES. Read-outs that look alike come from different tables or passages of the source.

Chain of PDE2A (O00408 whole entry, species assumed): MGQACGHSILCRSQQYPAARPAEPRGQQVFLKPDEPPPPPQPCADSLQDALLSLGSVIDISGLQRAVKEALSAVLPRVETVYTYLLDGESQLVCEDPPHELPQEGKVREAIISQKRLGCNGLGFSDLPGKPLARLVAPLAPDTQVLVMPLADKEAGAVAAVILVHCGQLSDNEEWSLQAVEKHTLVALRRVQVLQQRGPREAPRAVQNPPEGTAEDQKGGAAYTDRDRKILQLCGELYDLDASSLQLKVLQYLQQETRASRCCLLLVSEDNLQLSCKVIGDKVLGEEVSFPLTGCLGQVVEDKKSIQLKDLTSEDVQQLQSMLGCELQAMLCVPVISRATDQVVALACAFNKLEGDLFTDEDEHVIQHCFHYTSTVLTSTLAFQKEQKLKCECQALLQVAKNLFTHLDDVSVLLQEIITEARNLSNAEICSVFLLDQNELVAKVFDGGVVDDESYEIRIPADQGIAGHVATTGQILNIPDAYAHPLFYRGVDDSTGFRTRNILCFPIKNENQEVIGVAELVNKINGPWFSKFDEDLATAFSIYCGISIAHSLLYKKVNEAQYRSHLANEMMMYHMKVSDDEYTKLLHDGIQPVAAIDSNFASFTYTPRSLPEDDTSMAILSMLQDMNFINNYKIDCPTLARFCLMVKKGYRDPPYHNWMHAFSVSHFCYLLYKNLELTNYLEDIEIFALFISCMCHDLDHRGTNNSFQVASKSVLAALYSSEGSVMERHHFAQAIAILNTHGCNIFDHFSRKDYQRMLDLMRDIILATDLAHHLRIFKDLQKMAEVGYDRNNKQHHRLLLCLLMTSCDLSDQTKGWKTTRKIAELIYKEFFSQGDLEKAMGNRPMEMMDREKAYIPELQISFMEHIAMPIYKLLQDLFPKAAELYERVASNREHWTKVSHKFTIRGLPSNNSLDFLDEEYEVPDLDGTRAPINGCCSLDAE
Chain of PDE11A (Q9HCR9 whole entry, species assumed): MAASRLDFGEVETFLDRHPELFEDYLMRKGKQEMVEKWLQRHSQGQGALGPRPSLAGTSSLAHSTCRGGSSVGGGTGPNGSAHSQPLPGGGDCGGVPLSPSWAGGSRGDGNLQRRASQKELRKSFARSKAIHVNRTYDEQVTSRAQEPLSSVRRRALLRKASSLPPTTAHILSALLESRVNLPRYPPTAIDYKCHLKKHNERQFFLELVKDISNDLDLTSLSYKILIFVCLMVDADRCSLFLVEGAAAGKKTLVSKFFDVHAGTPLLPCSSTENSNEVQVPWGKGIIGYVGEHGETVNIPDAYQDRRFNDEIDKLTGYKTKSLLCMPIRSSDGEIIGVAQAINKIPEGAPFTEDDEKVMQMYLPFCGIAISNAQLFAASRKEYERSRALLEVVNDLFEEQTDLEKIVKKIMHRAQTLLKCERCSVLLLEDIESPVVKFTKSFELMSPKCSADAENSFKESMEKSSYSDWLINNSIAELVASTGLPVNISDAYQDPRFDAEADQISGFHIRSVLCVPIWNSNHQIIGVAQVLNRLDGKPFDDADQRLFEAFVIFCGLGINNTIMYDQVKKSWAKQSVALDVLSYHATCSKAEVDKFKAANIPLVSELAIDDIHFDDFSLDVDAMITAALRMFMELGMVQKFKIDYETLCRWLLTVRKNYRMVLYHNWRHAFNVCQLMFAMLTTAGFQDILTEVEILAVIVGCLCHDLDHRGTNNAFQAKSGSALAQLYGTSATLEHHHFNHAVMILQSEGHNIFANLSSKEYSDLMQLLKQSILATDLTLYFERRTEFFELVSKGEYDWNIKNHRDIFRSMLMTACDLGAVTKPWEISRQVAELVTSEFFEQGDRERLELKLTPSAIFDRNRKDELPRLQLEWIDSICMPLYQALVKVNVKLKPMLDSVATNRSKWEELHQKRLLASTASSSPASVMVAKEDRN
Chain of PDE3A (Q14432 whole entry, species assumed): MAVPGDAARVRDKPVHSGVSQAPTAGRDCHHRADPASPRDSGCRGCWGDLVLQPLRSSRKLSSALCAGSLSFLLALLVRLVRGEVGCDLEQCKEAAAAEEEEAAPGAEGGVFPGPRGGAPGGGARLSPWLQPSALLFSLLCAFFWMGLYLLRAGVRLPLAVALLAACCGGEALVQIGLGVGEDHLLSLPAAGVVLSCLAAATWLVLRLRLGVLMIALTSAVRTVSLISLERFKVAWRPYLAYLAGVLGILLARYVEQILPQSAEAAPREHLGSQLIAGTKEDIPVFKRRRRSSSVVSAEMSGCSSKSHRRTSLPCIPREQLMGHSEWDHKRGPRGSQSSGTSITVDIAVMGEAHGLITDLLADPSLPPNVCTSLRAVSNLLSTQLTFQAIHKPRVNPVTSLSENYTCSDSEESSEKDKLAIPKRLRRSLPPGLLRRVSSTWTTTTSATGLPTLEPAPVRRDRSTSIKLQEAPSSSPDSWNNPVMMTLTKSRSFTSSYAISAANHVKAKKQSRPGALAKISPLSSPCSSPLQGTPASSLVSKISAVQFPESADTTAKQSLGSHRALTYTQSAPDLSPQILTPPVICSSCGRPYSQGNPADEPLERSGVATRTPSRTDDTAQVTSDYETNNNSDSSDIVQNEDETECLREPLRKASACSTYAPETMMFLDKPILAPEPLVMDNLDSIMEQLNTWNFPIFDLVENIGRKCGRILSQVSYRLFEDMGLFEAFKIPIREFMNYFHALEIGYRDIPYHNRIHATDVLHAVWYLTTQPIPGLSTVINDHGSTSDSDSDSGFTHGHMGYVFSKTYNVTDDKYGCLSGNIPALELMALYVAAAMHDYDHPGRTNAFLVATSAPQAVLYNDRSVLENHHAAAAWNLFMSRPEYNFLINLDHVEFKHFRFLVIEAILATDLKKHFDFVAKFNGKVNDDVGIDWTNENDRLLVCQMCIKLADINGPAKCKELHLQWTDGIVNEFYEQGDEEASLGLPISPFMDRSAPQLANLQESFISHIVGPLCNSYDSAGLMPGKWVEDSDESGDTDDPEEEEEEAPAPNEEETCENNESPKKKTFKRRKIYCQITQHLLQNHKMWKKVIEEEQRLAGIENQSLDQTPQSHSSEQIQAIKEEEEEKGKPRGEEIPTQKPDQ
Chain of PDE10A (Q9Y233 whole entry, species assumed): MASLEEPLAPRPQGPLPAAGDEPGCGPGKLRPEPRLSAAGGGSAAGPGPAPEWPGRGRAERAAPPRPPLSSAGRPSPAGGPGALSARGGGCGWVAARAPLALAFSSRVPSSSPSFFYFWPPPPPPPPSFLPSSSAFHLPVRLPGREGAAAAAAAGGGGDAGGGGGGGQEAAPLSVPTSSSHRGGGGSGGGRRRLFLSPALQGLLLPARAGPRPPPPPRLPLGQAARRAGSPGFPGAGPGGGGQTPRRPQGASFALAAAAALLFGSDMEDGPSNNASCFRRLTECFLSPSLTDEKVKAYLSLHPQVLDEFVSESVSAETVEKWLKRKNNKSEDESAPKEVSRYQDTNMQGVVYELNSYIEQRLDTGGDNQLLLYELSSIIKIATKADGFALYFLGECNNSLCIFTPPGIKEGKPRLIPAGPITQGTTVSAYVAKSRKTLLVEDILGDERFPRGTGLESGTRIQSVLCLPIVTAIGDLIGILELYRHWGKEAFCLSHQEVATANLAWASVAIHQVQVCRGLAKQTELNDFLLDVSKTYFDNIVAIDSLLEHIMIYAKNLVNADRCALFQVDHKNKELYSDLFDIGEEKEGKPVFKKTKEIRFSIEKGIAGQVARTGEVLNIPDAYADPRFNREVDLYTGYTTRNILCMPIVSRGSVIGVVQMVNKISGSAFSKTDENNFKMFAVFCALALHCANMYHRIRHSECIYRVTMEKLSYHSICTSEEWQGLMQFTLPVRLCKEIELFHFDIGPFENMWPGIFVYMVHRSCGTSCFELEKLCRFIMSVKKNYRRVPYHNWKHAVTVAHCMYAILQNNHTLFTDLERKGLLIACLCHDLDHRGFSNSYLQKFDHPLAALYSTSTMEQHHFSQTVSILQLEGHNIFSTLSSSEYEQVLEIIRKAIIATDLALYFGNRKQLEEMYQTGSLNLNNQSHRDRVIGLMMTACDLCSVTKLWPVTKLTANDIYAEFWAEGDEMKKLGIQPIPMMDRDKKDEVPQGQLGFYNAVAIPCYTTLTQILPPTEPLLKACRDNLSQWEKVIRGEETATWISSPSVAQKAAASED
Chain of PDE1A (P54750 whole entry, species assumed): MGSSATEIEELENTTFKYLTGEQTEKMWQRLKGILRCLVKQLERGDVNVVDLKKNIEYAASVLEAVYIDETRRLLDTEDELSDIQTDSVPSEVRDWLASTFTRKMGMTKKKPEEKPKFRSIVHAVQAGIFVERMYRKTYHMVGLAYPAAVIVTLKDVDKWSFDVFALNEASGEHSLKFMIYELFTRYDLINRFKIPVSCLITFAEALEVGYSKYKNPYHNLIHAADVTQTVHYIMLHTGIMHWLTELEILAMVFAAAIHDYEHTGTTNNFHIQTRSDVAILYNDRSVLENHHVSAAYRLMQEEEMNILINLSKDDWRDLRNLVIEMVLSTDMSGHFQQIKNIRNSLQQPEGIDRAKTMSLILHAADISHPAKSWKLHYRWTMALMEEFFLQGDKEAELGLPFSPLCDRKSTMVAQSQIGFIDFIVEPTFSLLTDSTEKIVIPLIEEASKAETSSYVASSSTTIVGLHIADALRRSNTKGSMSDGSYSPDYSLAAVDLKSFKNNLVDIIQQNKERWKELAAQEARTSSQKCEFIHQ

Take `COC(=O)[C@@H]1Cc2c([nH]c3ccccc23)[C@H](c2ccc(Br)s2)N1` [Compound 3, (1R,3S) Methyl 1-(5-bromo-2-thienyl)-2,3,4,9-tetrahydro-1H-β-carboline-3-carboxylate]: in assay [1], the inhibition at 10 µM was < 60%.
Same read-out and setting: to `C=CCN1C(=O)[C@@H]2Cc3c([nH]c4ccccc34)[C@H](c3ccc(Br)s3)N2C1=O` [Compound 19, (5R,11aS) 5-(5-Bromo-2-thienyl)-2-allyl-5,6,11,11a-tetrahydro-1H-imidazo[1′,5 ′:1,6]pyrido[3,4-b]indole-1,3(2H)-dione] belongs < 60%.
Consider `COC(=O)c1cc2c([nH]c3ccccc32)c(-c2ccc(Br)s2)n1` [Compound 25, Methyl 1-(5-bromo-2-thienyl)-β-carboline-3-carboxylate], for which the “PDE5 inhibition (in words)” value in assay [1] (SAR statement in text) is recorded as “no PDE5 inhibition”. For the same compound, the inhibition at 10 µM in assay [1] is < 60%.
For `CC(C)(C)N1C(=O)[C@H]2Cc3c([nH]c4ccccc34)[C@H](c3ccc(Br)s3)N2C1=O` [Compound 14, (5R,11aR) 5-(5-Bromo-2-thienyl)-2-tert-butyl-5,6,11,11a-tetrahydro-1H-imidazo[1′,5 ′:1,6]pyrido[3,4-b]indole-1,3(2H)-dione], the inhibition at 10 µM in assay [1] was < 60%.
For the compound `CCCCN1C(=O)[C@H]2Cc3c([nH]c4ccccc34)[C@H](c3ccc(Br)s3)N2C1=O` [Compound 10, (5R,11aR) 5-(5-Bromo-2-thienyl)-2-butyl-5,6,11,11a-tetrahydro-1H-imidazo[1′,5 ′:1,6]pyrido[3,4-b]indole-1,3(2H)-dione], the inhibition at 10 µM in assay [1] is < 60%.
With `CCCCN1C(=O)[C@@H]2Cc3c([nH]c4ccccc34)[C@@H](c3ccc(Br)s3)N2C1=O` [Compound 12, (5S,11aS) 5-(5-Bromo-2-thienyl)-2-butyl-5,6,11,11a-tetrahydro-1H-imidazo[1′,5 ′:1,6]pyrido[3,4-b]indole-1,3(2H)-dione], in assay [1], the IC50 stood at 0.47 µM and the inhibition at 10 µM was 92%.
As for `COC(=O)[C@H]1Cc2c([nH]c3ccccc23)[C@H](c2ccc(Br)s2)N1` [Compound 2, (1R,3R) Methyl 1-(5-bromo-2-thienyl)-2,3,4,9-tetrahydro-1H-β-carboline-3-carboxylate], the inhibition at 10 µM in assay [1] is < 60%.
With `CC(C)(C)N1C(=O)[C@@H]2Cc3c([nH]c4ccccc34)[C@@H](c3ccc(Br)s3)N2C1=O` [Compound 16, (5S,11aS) 5-(5-Bromo-2-thienyl)-2-tert-butyl-5,6,11,11a-tetrahydro-1H-imidazo[1′,5 ′:1,6]pyrido[3,4-b]indole-1,3(2H)-dione], in assay [1], the IC50 turned out to be 1 µM.
On to `CCN1CC(=O)N2[C@H](c3ccc(Br)s3)c3[nH]c4ccccc4c3C[C@H]2C1=O` [Compound 24, (6S,12aS) 6-(5-Bromo-2-thienyl)-2-ethyl-2,3,6,7,12,12a-hexahydropyrazino[1′,2 ′:1,6]pyrido[3,4-b]indole-1,4-dione], for which, in assay [1], the IC50 was 1 µM and the inhibition at 10 µM was 87%.
Turning to `C=CCN1C(=O)[C@@H]2Cc3c([nH]c4ccccc34)[C@@H](c3ccc(Br)s3)N2C1=O` [Compound 20, (5S,11aS) 5-(5-Bromo-2-thienyl)-2-allyl-5,6,11,11a-tetrahydro-1H-imidazo[1′,5 ′:1,6]pyrido[3,4-b]indole-1,3(2H)-dione], in assay [1], the IC50 came out at 0.32 µM and the inhibition at 10 µM was found to be 97%.
With `CCCCN1C(=O)[C@@H]2Cc3c([nH]c4ccccc34)[C@H](c3ccc(Br)s3)N2C1=O` [Compound 11, (5R,11aS) 5-(5-Bromo-2-thienyl)-2-butyl-5,6,11,11a-tetrahydro-1H-imidazo[1′,5 ′:1,6]pyrido[3,4-b]indole-1,3(2H)-dione], the inhibition at 10 µM in assay [1] was < 60%.
Take `CCCCN1C(=O)[C@H]2Cc3c([nH]c4ccccc34)[C@@H](c3ccc(Br)s3)N2C1=O` [Compound 9, (5S,11aR) 5-(5-Bromo-2-thienyl)-2-butyl-5,6,11,11a-tetrahydro-1H-imidazo[1′,5 ′:1,6]pyrido[3,4-b]indole-1,3(2H)-dione]: the IC50 was > 50 µM in assay [2]; 4 µM in assay [3] (setting [8]); 2.3 µM in assay [3] (setting [9]); > 50 µM in assay [4]; > 50 µM in assay [5]; 0.17 µM in assay [1]. In addition, the half-maximal inhibitory concentration (IC50) in assay [6] and in assay [7] was > 50 µM throughout. Also, the “inhibition of cGMP hydrolysis by PDE9A (in words)” value (“inhibition … by PDE9A (in words)” below) in assay [2] is on record as “lacked the ability to inhibit cGMP hydrolysis”. Besides, the “Selectivity index IC50 (PDE11A/PDE5A) cGMP/cGMP” value in assay [3] (ratio of IC50 PDE11A to PDE5A, cGMP as substrate) came to 14. Further, the “inhibition of cGMP hydrolysis by PDE10A (in words)” value (from here on “inhibition … by PDE10A (in words)”) in assay [4] is “lacked the ability to inhibit cGMP hydrolysis”. In addition, the “inhibition of cGMP hydrolysis by PDE1A (in words)” value (“inhibition … by PDE1A (in words)” below) in assay [5] is “lacked the ability to inhibit cGMP hydrolysis”. Moreover, in assay [1], the inhibition at 10 µM was 99%. Further, the “inhibition of cGMP hydrolysis by PDE2A (in words)” value (from here on “inhibition … by PDE2A (in words)”) in assay [6] is on record as “lacked the ability to inhibit cGMP hydrolysis”. Moreover, in assay [7], the “inhibition of cGMP hydrolysis by PDE3A (in words)” value (shortened to “inhibition … by PDE3A (in words)”) is given as “lacked the ability to inhibit cGMP hydrolysis”.
Turning to `CCN1CC(=O)N2[C@H](c3ccc(Br)s3)c3[nH]c4ccccc4c3C[C@@H]2C1=O` [Compound 23, (6S,12aR) 6-(5-Bromo-2-thienyl)-2-ethyl-2,3,6,7,12,12a-hexahydropyrazino[1′,2 ′:1,6]pyrido[3,4-b]indole-1,4-dione], in assay [1], the IC50 was 1.71 µM and the inhibition at 10 µM was 81%.
For the compound `C=CCN1C(=O)[C@H]2Cc3c([nH]c4ccccc34)[C@H](c3ccc(Br)s3)N2C1=O` [Compound 18, (5R,11aR) 5-(5-Bromo-2-thienyl)-2-allyl-5,6,11,11a-tetrahydro-1H-imidazo[1′,5 ′:1,6]pyrido[3,4-b]indole-1,3(2H)-dione], in assay [1], the IC50 came out at 5.4 µM.
Consider `COC(=O)[C@@H]1Cc2c([nH]c3ccccc23)[C@@H](c2ccc(Br)s2)N1` [Compound 4, (1S,3S) Methyl 1-(5-bromo-2-thienyl)-2,3,4,9-tetrahydro-1H-β-carboline-3-carboxylate], for which the inhibition at 10 µM in assay [1] is < 60%.
In the case of `CC(C)(C)N1C(=O)[C@@H]2Cc3c([nH]c4ccccc34)[C@H](c3ccc(Br)s3)N2C1=O` [Compound 15, (5R,11aS) 5-(5-Bromo-2-thienyl)-2-tert-butyl-5,6,11,11a-tetrahydro-1H-imidazo[1′,5 ′:1,6] pyrido[3,4-b]indole-1,3(2H)-dione], in assay [1], the inhibition at 10 µM is < 60%.
Take `CC(C)(C)N1C(=O)[C@H]2Cc3c([nH]c4ccccc34)[C@@H](c3ccc(Br)s3)N2C1=O` [Compound 13, (5S,11aR) 5-(5-Bromo-2-thienyl)-2-tert-butyl-5,6,11,11a-tetrahydro-1H-imidazo[1′,5 ′:1,6]pyrido[3,4-b]indole-1,3(2H)-dione]: in assay [1], the IC50 came to 0.39 µM and the inhibition at 10 µM worked out at 97%.
With `C=CCN1C(=O)[C@H]2Cc3c([nH]c4ccccc34)[C@@H](c3ccc(Br)s3)N2C1=O` [Compound 17, (5S,11aR) 5-(5-Bromo-2-thienyl)-2-allyl-5,6,11,11a-tetrahydro-1H-imidazo[1′,5 ′:1,6]pyrido[3,4-b]indole-1,3(2H)-dione], the IC50 in assay [1] was 0.29 µM.
Regarding `COC(=O)[C@H]1Cc2c([nH]c3ccccc23)[C@@H](c2ccc(Br)s2)N1` [Compound 1, (1S,3R) Methyl 1-(5-bromo-2-thienyl)-2,3,4,9-tetrahydro-1H-β-carboline-3-carboxylate], the inhibition at 10 µM in assay [1] was < 60%.
For `CCN1C(=O)[C@@H]2Cc3c([nH]c4ccccc34)[C@@H](c3ccc(Br)s3)N2C1=O` [Compound 8, (5S,11aS) 5-(5-Bromo-2-thienyl)-2-ethyl-5,6,11,11a-tetrahydro-1H-imidazo[1′,5 ′:1,6]pyrido[3,4-b]indole-1,3(2H)-dione], the IC50 in assay [2] was > 50 µM; in assay [3] (setting [8]), 11.3 µM; in assay [3] (setting [9]), 7.8 µM; in assay [4], > 50 µM; in assay [5], > 50 µM; in assay [1] (read-out: PDE5 inhibition IC50, 10 concentrations, each with double replicates), 0.16 µM. For the same compound, the IC50 in assay [6] and in assay [7] was > 50 µM in each case. Besides, the “inhibition … by PDE9A (in words)” value in assay [2] is given as “lacked the ability to inhibit cGMP hydrolysis”. Further, the “inhibition … by PDE10A (in words)” value in assay [4] was “lacked the ability to inhibit cGMP hydrolysis”. The “inhibition … by PDE1A (in words)” value in assay [5] is given as “lacked the ability to inhibit cGMP hydrolysis”. For the same compound, the “inhibition … by PDE2A (in words)” value in assay [6] is given as “lacked the ability to inhibit cGMP hydrolysis”. The “inhibition … by PDE3A (in words)” value in assay [7] is on record as “lacked the ability to inhibit cGMP hydrolysis”.
On to `CN1CC(=O)N2[C@H](c3ccc4c(c3)OCO4)c3[nH]c4ccccc4c3C[C@@H]2C1=O` [Tadalafil, tadalafil, reference compound], for which, in assay [2], the IC50 was > 50 µM and the “inhibition … by PDE9A (in words)” value is recorded as “lacked the ability to inhibit cGMP hydrolysis”. Further, in assay [4], the IC50 is > 50 µM and the “inhibition … by PDE10A (in words)” value is on record as “lacked the ability to inhibit cGMP hydrolysis”. In assay [5], the IC50 is > 50 µM and the “inhibition … by PDE1A (in words)” value is on record as “lacked the ability to inhibit cGMP hydrolysis”. Besides, in assay [6], the IC50 was > 50 µM and the “inhibition … by PDE2A (in words)” value was “lacked the ability to inhibit cGMP hydrolysis”. Moreover, in assay [7], the IC50 is > 50 µM and the “inhibition … by PDE3A (in words)” value is on record as “lacked the ability to inhibit cGMP hydrolysis”.

The values above are taken from publication PMC4980837 (Archiv der Pharmazie, 2013).
